These results are taken from PMC7830570, “Substrate Scope for Human Histone Lysine Acetyltransferase KAT8” (International Journal of Molecular Sciences, 2021).

Test [1] has as its target T1, human KAT8 (residues 125–458) (Homo sapiens, UniProt Q9H7Z6).
T1 construct: Recombinant human KAT8 (residues 125–458) was expressed in E. coli; His tag; made in house; host or cells: E. coli
T1 sequence (Q9H7Z6 125-458): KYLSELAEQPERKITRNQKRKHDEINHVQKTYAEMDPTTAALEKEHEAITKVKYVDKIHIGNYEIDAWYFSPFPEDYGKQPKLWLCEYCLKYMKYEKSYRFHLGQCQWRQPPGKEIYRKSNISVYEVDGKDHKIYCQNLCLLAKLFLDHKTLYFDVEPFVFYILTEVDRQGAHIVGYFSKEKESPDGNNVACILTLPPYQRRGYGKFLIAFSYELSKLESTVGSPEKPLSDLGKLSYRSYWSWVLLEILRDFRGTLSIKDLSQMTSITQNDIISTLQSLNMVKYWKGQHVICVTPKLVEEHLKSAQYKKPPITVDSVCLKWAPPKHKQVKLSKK
Description: MALDI-TOF MS enzymatic assay of KAT8-catalysed acetylation of H4K*16 histone peptides. The test is classed as biochemical. Conditions: standard conditions: 2 µM KAT8, 100 µM histone peptide, 300 µM AcCoA, 50 mM HEPES, 0.1 mM EDTA, 1 mM DTT, pH 8.0, 37 °C. On the procedure:
The biocatalytic potential of KAT8 was assessed through a MALDI-TOF MS based enzymatic assay. Human KAT8 was incubated in the presence of H4K*16 peptides and AcCoA under “standard conditions” (2 µM KAT8, 100 µM histone peptide, 300 µM AcCoA; assay buffer: 50 mM Hepes, 0.1 mM EDTA, 1 mM DTT, pH = 8.0) and the production of acetylated peptides was monitored at different time points. […] KAT8-catalysed acetylation of H4K16 was quantitative after 1 h, in line with previous findings (Figure 3a and Figure S17). […] This is an interesting observation, given the well-documented capacity of some histone lysine methyltransferases (KMTs) that introduce higher methylation states (i.e., Kme2 and Kme3) on histone tails starting from Kme as a substrate. […]
KAT8 enzymatic activity towards H4K*16 histone peptides was measured at different time points under standard conditions (2 µM KAT8, 100 µM peptide, 300 µM AcCoA) in reaction buffer (50 mM HEPES, 0.1 mM EDTA, 1 mM DTT, pH = 8.0) as previously described The reactions were performed in a final volume of 50 µL and shaken at 37 °C, using a Thermomixer C (750 rpm). KAT8 activity was stopped at a given time point by the addition of TFA 10% in Milli-Q water, and reactions were analysed by MALDI-TOF MS employing α-Cyano-4-hydroxycinnamic acid (CHCA) matrix.

The target in test [2] is T1, human KAT8 (residues 125–458). The test can be described thus: MALDI-TOF MS kinetics assay of KAT8-catalysed acetylation under steady-state conditions. It counts as biochemical. Conditions: pH 7.4, 37 °C. On the procedure:
Next, we investigated the catalytic efficiencies for the histone peptides that were observed as KAT8 substrates. Kinetics analyses were carried out under steady-state conditions by incubating saturating concentrations of AcCoA against different concentrations of histone peptides.
Histone peptides kinetics evaluation was carried out with a MALDI-TOF MS assay under steady-state conditions as previously described. Briefly, dilution series of H4K*16 peptides (1050 or 700–0 µM) were incubated with AcCoA (100 µM; > 5 x KM value of AcCoA) and the reactions were started by the addition of KAT8 (570 nM) in kinetic buffer (50 mM HEPES, 0.1 mM EDTA, 0.01% TRITON-X, pH = 7.4). AcCoA stock solutions in Milli-Q water were calibrated using a NanoDrop 2000 spectrophotometer (Thermo Scientific, Waltham, MA, USA), with molar extinction coefficient ε260nm = 16,400 M^−1 cm^−1. Reactions were incubated for 20 min at 37 °C, shaken at 750 rpm and quenched with TFA 10% in Milli-Q water at different time points within the linear production of acetylated peptides. Quantification of the acetylated peptide produced was extrapolated, at any concentration point, with FlexAnalysis software, considering all the ionic species. Kinetic parameters were obtained by fitting V0 values and histone peptide concentrations to the Michaelis–Menten equation using the GraphPad Prism 5 software. Kinetic experiments were carried out in replicates (n = 2 or 3) and final values are reported as the mean value ± SD.

Test [3] has the same target. Conditions: lysine analogue on histone peptide; cited from earlier work. On the procedure: The biocatalytic potential of KAT8 was assessed through a MALDI-TOF MS based enzymatic assay. Human KAT8 was incubated in the presence of H4K*16 peptides and AcCoA under “standard conditions” (2 µM KAT8, 100 µM histone peptide, 300 µM AcCoA; assay buffer: 50 mM Hepes, 0.1 mM EDTA, 1 mM DTT, pH = 8.0) and the production of acetylated peptides was monitored at different time points. […] KAT8-catalysed acetylation of H4K16 was quantitative after 1 h, in line w ... || Subsequently, we investigated the role of the geometrically constrained and steric lysine analogues for KAT8 catalysis. The KAT8-catalysed reaction of H4KE16 produced 64% of acetylated peptide after 1 h, and reached completion within 3 h (Figure 3i and Figure S17).

For “GGAK16RHRKVLRDNIQ [H4K16, histone H4 peptide, residues 13–27, with natural lysine at position 16]”, in test [1], the “acetylated peptide produced after 1 h” value was “quantitative”. Also, the “kcat^app” value in test [2] (570 nM KAT8, 100 µM AcCoA, peptide 1050 or 700–0 µM, 50 mM HEPES, 0.1 mM EDTA, 0.01% TRITON-X, mean ± SD, n = 2 or 3, SD) is 0.25 ± 0.013 s⁻¹. The Km in test [2] (570 nM KAT8, 100 µM AcCoA, peptide 1050 or 700–0 µM, 50 mM HEPES, 0.1 mM EDTA, 0.01% TRITON-X, mean ± SD, n = 2 or 3, SD, read-out: KM^app) was found to be 437 ± 107 µM. In addition, the “kcat^app/KM^app” value in test [2] (catalytic efficiency from kcat^app and KM^app) worked out at 567 M⁻¹ s⁻¹.
For γ-thialysine, the KAT8 substrate quality entry in test [3] is “excellent substrate”.
Turning to homolysine [hK], the KAT8 substrate quality result in test [3] is “good KAT8 substrate”.

One may read the Km as the substrate concentration at which the rate is half of its maximum.
